Assay results: patent US8609712B2, “Purification of progesterone receptor modulators” (Wyeth LLC, priority 0205, dated 2013)
≈ marks a conversion by molar mass, not a printed value. Values belong to the compound of their own block, whether it stands above or below them.

What was measured:
Solubility in DMF = details: solvent DMF
physchem = details: organic solvent or mixture
[1] = Solubility of the isolated salt in NMP / DMPU; format: physicochemical
Method: 6-Bromo-4,4-dimethyl-benzoxazine-2-one (2.59 g) was dissolved in THF (50 mL) at ambient temperature followed by addition of sodium tert-butoxide (0.96 g). The mixture was gently heated until a solution was obtained.
Similarly, 6-bromo-4,4-dimethyl-benzoxazine-2-one (2.55 g) was reacted with lithium tert-butoxide (10 mL of 1M solution in THF).

Compound: 5′-(5-cyano-1-methyl-1H-pyrrol-2-yl)spiro[cyclohexane-1,3′-[3H]indol]-2′-ylidenecyanamide choline salt
solubility in DMF (Solubility in DMF): 11 mg/mL

solubility (physchem): 3 mg/mL (≈ 9.11 mM)
Compound: Cn1c(C#N)ccc1-c1ccc2c(c1)C1(CCCCC1)C(=NC#N)N2 [5′-(5-Cyano-1-methyl-1H-pyrrol-2-yl)spiro[cyclohexane-1,3′-[3H]indol]-2′-ylidenecyanamide]

solubility in dimethylpyrimidone (DMPU) ([1]; without heating): soluble
Compound: CC1(C)OC(=O)Nc2ccc(Br)cc21.[Li] [6-Bromo-4,4-Dimethyl-Benzoxazine-2-One Lithium Salt]

solubility in N-methylpyrrolidone (NMP) and dimethylpyrimidone (DMPU) ([1]; solvents heated to about 40 to about 50° C.): soluble
Compound: CC1(C)OC(=O)Nc2ccc(Br)cc21.[Na] [6-Bromo-4,4-Dimethyl-Benzoxazine-2-One Sodium Salt]
